Experimental findings from PMC4127593, “Novel human D-amino acid oxidase inhibitors stabilize an active-site lid-open conformation” (Bioscience Reports, 2014) are described below.

Entries after “also recorded” stand apart in the source; their conditions may differ. Where two headings read alike, the source gives them in different places.

In data set [1] the target is rDAAO (rat DAAO) (Rattus norvegicus, UniProt O35078). In words: rDAAO inhibition assay, Amplex Red format.
Protocol: (§1) All enzymatic assays were conducted at room temperature (23–24°C) in 96-well plate format. Dose response data to generate IC50 data were analysed via Prism (Graphpad Software) or by a script executed by Pipeline Pilot (Accelrys).
(§2) For our assay, N-terminal hexaHis (His)-tagged hDAAO (prepared as described previously [32]), HRP (horseradish peroxidase), FAD, and compound inhibitor were incubated for 20–30 min. After that pre-incubation period, D-serine and Amplex Red were added and reaction proceeded for 1 hour. Fluorescent product, caused by hydrogen peroxide-dependent, Amplex Red oxidation during hDAAO-catalysed substrate turnover, was measured on a FlexStation II (Molecular Devices) in endpoint mode with these settings: excitation 530 nm, emission 590 nm, cutoff 590 nm and photomultiplier tube on Low. […] For the counter assay, hDAAO was omitted and 800 nM hydrogen peroxide (Sigma) was included.
The target in data set [2] is HRP/hydrogen peroxide detection system (Armoracia rusticana, UniProt P00433). In words: Counter assay (Amplex Red; hDAAO omitted, hydrogen peroxide included). As to conditions: Amplex Red detection system without hDAAO.
Chain of HRP/hydrogen peroxide detection system (P00433 31-338): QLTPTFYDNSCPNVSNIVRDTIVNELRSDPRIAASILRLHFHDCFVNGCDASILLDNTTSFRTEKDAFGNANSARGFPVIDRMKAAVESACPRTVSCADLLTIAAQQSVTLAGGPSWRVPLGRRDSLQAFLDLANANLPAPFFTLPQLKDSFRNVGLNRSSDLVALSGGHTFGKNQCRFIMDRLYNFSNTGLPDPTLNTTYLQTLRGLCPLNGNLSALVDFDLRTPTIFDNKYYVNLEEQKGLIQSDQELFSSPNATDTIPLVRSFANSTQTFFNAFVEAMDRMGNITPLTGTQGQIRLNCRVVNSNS
Protocol: as §2
For data set [3], the target named is T1, hDAAO (human D-amino acid oxidase) (Homo sapiens, UniProt P14920).
T1 construct: hexaHis (N); made in house
T1 sequence (P14920 whole entry): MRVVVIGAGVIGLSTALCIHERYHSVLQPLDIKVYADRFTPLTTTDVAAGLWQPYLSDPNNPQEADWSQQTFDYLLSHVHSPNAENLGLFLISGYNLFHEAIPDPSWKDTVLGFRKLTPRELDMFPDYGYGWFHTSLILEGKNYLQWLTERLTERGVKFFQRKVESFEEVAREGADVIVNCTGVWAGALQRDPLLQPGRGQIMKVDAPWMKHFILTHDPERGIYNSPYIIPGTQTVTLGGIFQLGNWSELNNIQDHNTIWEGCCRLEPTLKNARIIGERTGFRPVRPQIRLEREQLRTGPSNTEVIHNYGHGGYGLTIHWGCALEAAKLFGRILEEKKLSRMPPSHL
In words: hDAAO inhibition assay, Amplex Red format, D-serine as substrate. The class given is biochemical. The following applies: for IC50: 0.73 nM His-hDAAO, 5 mM D-serine, 450 nM FAD, pH 7.4, mean±S.D.; for IC50 values relative to compound 3: in several of the biochemical assays.
Protocol: as §1, §2

In data set [4] the target is T2, hDAAO (Homo sapiens, UniProt P14920).
T2 construct: hexaHis (N); made in house
T2 sequence (P14920 whole entry): as above
In words: D-serine and FAD saturation experiments (mechanism of inhibition, Ki). The class given is biochemical. As to conditions: for Mechanism of inhibition: D-serine saturation at 40 μM FAD, FAD saturation at 50 mM D-serine; for Ki: global fit of D-serine saturation data to equations (3) and (4), mean±S.D.
Protocol: To determine inhibitor mechanism of action (D-serine- or FAD-competition), saturation experiments were performed using the Amplex Red system. Keeping D-serine or FAD constant, concentration of the other substrate was varied, and hDAAO enzymatic product was measured fluorescently as described above; these saturation tests were conducted in the presence of variable amounts of inhibitor. In these experiments, there was no preincubation period, such that hDAAO was exposed to D-serine, FAD and inhibitor simultaneously. […] After a 1 h reaction, product was measured using the FlexStation II in the endpoint mode. Data were plotted and fit with a one site, specific binding equation (Graphpad Prism): (2) y=Vmax×x/KM+x
Equation (2) permitted a determination of Vmax and KM at variable inhibitor concentration for a determination of competitive, uncompetitive or non-competitive profile. For D-serine competitive inhibitors, the same data were fit using the GraphPad Prism ‘Competitive inhibition’ equation to derive a global Ki value: (3) KM,obs=KM(1+[I]Ki) (4) y=Vmax×x/KM,obs+x

Data set [5] deals with T2, hDAAO. Description: LC–MS-based hDAAO inhibition assay, D-phenylglycine as substrate. The class given is biochemical. As to conditions: 5 nM His-hDAAO, 5 mM D-phenylglycine, 450 nM FAD; mean±S.D.
Protocol: as §1
For the LC–MS-based hDAAO inhibition assay, his-hDAAO, FAD and compound inhibitors were incubated for 20–30 min. After that period, D-phenylglycine was added and reaction proceeded for 1 h. […] Following the 1 h enzymatic reaction, an equal volume of 100% (v/v) acetonitrile was added. Quantitation of benzylformic acid concentrations was performed using negative ion liquid chromatography/mass spectrometry/mass spectrometry (LC–MS/MS). A 2 μl aliquot of sample was injected onto an ultra-high performance liquid chromatographic system (UPLC Waters Corp) equipped with an API 5500 QTrap mass spectrometer detector (Applied Biosystems/MDS Sciex) operated in the negative TurboIonSpray® mode. […] The mobile phases used for elution consisted of 1.0 mM ammonium formate with 0.2% (v/v) formic acid in water (A) and 1.0 mM ammonium formate with 0.2% (v/v) formic acid in acetonitrile (B) at a total flow rate of 0.600 ml/min. Wash solvent 1 was 3% formic acid in acetonitrile and wash solvent 2 was 3% formic acid in water. Calibration standards were injected once before and once after the analysis of unknown samples to construct a standard curve. A linear weighted (1/concentration^2) regression analysis of the analyte peak area ratio versus theoretical concentration was used to produce calibration curves from standards.
The target in data set [6] is T2, hDAAO. In words: Jump-dilution assay (reversibility, apparent dissociation rate). The following applies: for koff: jump-dilution. The class given is biochemical.
Protocol: The assay mixture was similar to that described above for the Amplex Red-based assay system. […] After a 30 min pre-incubation to form inhibited complexes, 195 μl of reaction mixture was added. Compared with the standard assay, 50 mM D-serine was utilized as the hDAAO substrate. […] Immediately after adding the reaction mixture, fluorescent substrate was monitored kinetically by the FlexStation II. Data were fit using the following equation [38] in which Pis the fluorescent product formed, tis the time, vs is the final, steady-state reaction velocity, vi is the initial reaction velocity, and k is the koff: (1) [P]=vst+vi−vs/k(1−e^−kt)
Data set [7] can be described thus: In vivo brain penetration after intraperitoneal dosing. The following applies: mouse, brain and plasma, ip; mice, dosed intraperitoneally; results not shown; read-out: brain:plasma compound ratio. The source says:
Multiple groups have pursued the discovery of potent, brain-penetrant, drug-like hDAAO inhibitors for use in treating schizophrenia and other nervous system disorders. Thus, the identification of a novel hDAAO conformation could guide the design of the next generation of hDAAO inhibitors. […] Like all existing high-affinity hDAAO inhibitors, interaction of these compounds with Arg^283 of hDAAO requires a carboxylic acid or other electronegative moiety, a feature that is known to reduce brain penetration. […] Potency gained by optimizing ligand binding in these hDAAO regions could conceivably reduce the need for extensive Arg^283 association, and, thus, could facilitate the creation of novel inhibitors of hDAAO.

The mark [8] stands for this setting: 80 μM FAD pre-incubation, 50 mM D-serine, mean±S.D.

Chain of rDAAO (rat DAAO) (O35078 whole entry): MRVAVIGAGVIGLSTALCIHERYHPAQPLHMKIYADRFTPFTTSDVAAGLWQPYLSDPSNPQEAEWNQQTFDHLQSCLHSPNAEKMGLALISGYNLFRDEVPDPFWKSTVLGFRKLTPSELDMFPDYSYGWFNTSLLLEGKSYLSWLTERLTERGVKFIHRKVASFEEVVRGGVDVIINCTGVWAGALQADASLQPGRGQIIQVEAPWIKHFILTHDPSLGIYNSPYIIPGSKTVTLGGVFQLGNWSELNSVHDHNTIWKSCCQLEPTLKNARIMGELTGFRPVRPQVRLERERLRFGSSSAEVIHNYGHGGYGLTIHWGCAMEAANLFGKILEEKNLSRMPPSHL

In the case of `O=C(O)c1cc2occc2[nH]1` [Compound 1, 4H-furo[3,2-b]pyrrole-5-carboxylic acid, reference compound], in data set [1], the midpoint of inhibition, the IC50, lay at 87 ± 11 nM. Besides, the “inhibition in the counter assay” value in data set [2] is recorded as “did not display inhibition”.
As to `Nc1ncnc2c1ncn2[C@@H]1O[C@H](COP(=O)(O)OP(=O)(O)O)[C@@H](O)[C@H]1O` [ADP, reference compound], half-maximal inhibition in data set [3] (IC50) required 580000 ± 80000 nM. Moreover, the Mechanism of inhibition entry in data set [4] is recorded as “FAD-competitive inhibitor of hDAAO; also recorded: D-serine mixed competition, FAD competitive”.
On to `COc1ccc(CCc2cc(O)c(=O)[nH]n2)c(OC)c1` [Compound 6, 6-(2,4-dimethoxyphenethyl)-4-hydroxypyridazin-3(2H)-one], for which the IC50 (as a rule, the midpoint of a concentration-inhibition curve) in data set [3] was found to be 7.2 ± 1 nM; in data set [5], 24 nM; in data set [1] it was 83 ± 7 nM. For the same compound, the “IC50 values relative to compound 3” value in data set [3] is 5–10 fold.
As for `Cc1cc(=O)oc2cc(O)c(CCC(=O)O)cc12` [Compound 4], the IC50 in data set [3] is 18000 nM. Moreover, the “hDAAO inhibitory potency weaker than compound 2” value in data set [3] (relative to compound 2) is “approximately 500 fold”.
As to `O=C(O)CCc1cc2c(-c3ccccc3)cc(=O)oc2cc1O` [Compound 2, 3-(7-hydroxy-2-oxo-4-phenyl-2H-chromen-6-yl)propanoic acid], the IC50 in data set [3] is 37 ± 14 nM; in data set [5], 230 ± 180 nM; in data set [1] it was 4000 ± 1400 nM. Further, the inhibition (usually the share of the control response that was lost under treatment) at 0.2 µM in data set [3] (200 nM compound) is over 80%. In data set [6] (5 nM compound, 50 mM D-serine recovery conditions), the “hDAAO inhibition after dilution” value is reported as “no significant inhibition”. Moreover, the reversibility of inhibition entry in data set [6] (200 nM then 5 nM jump dilution) is “reversible inhibition”. Besides, the koff in data set [6] (setting [8]) is given as 0.12 ± 0.02 (8) per min. Moreover, in data set [7], the Kp is under 0.05. In addition, the Mechanism of inhibition result in data set [4] is recorded as “D-serine competitive, FAD uncompetitive”. The Ki (usually the dissociation constant of the complex between target and ligand, obtained from inhibition or displacement) in data set [4] was determined as 7 ± 1.4 nM. Further, the “inhibition in the counter assay” value in data set [2] was “did not display inhibition”.
As for `O=c1cc(-c2ccccc2)c2cc(CCc3cc(O)c(=O)[nH]n3)c(O)cc2o1` [Compound 3, 4-hydroxy-6-(2-(7-hydroxy-2-oxo-4-phenyl-2H-chromen-6-yl)ethyl)pyridazin-3(2H)-one], the IC50 in data set [3] stood at 20 ± 5 nM; in data set [5], 110 ± 20 nM; in data set [1], 47 ± 16 nM. Moreover, the “more potent as hDAAO inhibitor than compound 2” value in data set [3] (relative to compound 2) was “approximately 2 fold”. Besides, the dissociative half-life in data set [6] (from koff) was about 1 h. Also, the koff in data set [6] (setting [8]) is 0.015 ± 0.03 (3) per min; in data set [6] (read-out: off-rate (koff) (converted)), 0.00025 s⁻¹. The Kp in data set [7] was under 0.05. Besides, the Mechanism of inhibition entry in data set [4] is “D-serine competitive, FAD uncompetitive”. Also, the Ki in data set [4] is under 10 nM.
With `O=c1[nH]nc(CCc2ccc(O)cc2O)cc1O` [Compound 5, 6-(2,4-dihydroxyphenethyl)-4-hydroxypyridazin-3(2H)-one], the IC50 in data set [3] is 54 ± 10 nM; in data set [5], 13 nM; in data set [1], 130 nM. Moreover, the “IC50 values relative to compound 3” value in data set [3] is listed as 5–10 fold.
